Measurements taken from ChEMBL document CHEMBL1201862, “PubChem BioAssay data set” (2004).
The source made the active and inactive calls.

How the values were obtained:
HEK293 [1] = assay: inhibition of NOD1-driven NF-kB reporter – cell-based, luminescence, uHTS, primary screen (AID 1578); format: functional; conditions: Homo sapiens
HEK293 [2] = assay: NOD2 signaling inhibitors in MDP-stimulated cells, cell-based, uHTS, luminescence (AID 2001); format: functional; conditions: Homo sapiens
HEK293 [3] = assay: cells; format: functional, cell-based; conditions: Homo sapiens
[4] = luciferase reporter signal suppression in cells – H4 neuroglioma cells, luminescence, dose response (AID 1990); format: functional, cell-based
[5] = alpha-synuclein stem-loop luciferase translation blockers – H4 neuroglioma cells, luminescence, confirmation (AID 1988); format: functional, cell-based
HEK293 [6] = assay: cells; format: functional, cell-based; conditions: Homo sapiens; remark: listed apart in the source
[7] = target: Nucleotide-binding oligomerization domain-containing protein 2 (Homo sapiens, UniProt Q9HC29); assay: inhibition of NOD2-driven NF-kB reporter – cell-based, luminescence, uHTS, HEK293 (AID 1566); format: functional
HEK293 [8] = assay: cells; format: functional, cell-based; conditions: Homo sapiens; remark: listed apart in the source
[9] = Luminescence Cell-Based Dose Response HTS to Identify Inhibitors of 5'UTR Stem-Loop Driven Prion Protein mRNA Translation in H4 Neuroglioblastoma Cells. [Related pubchem assays: 1827 (Project Summary), 1813 (Primary HTS)]; format: functional
[10] = target: Voltage-dependent T-type calcium channel subunit alpha-1H (Homo sapiens, UniProt O95180); format: functional;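 further: channel activity triggered by adding a high calcium stimulation buffer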
Troponin, cardiac muscle = Troponin, cardiac muscle (Homo sapiens, UniProt P19429+P45379+P63316); assay: Fluorescence-based biochemical high throughput dose response assay for activators of the calcium sensitivity of cardiac Regulated Thin Filaments (RTF). [Related pubchem assays (depositor defined):AID493008, AID493018, AID504382, AID504383]; format: protein-complex assay
[11] = HEK-293T cell viability reduction – luminescence, B-cell screen hits, cytotoxicity control for BCR NF-kB inhibitor project, dose response (AID 489021); format: functional, cell-based;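 further: HEK-293T cells carrying an NF-kB luciferase reporter; cells exposed to compound for about 14 hours before viability readout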
[12] = viability of HCT116 lacking mutant beta-catenin – cell-based, human colon tumor, dose response (AID 1045); format: functional;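 further: HCT116 colon tumor cells with beta catenin knocked out; cells exposed to compound for 60 hours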
[13] = viability of PTEN-deleted HCT116 cells – cell-based, HCT116 PTEN knockout, dose response (AID 1047); format: functional;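 further: HCT116 colon tumor cells with PTEN knocked out; cells exposed to compound for 60 hours before readout; potency for loss of cell viability measured by luminescence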
[14] = target: T1, RNA-binding protein pos-1 (Caenorhabditis elegans, UniProt G5EF15); assay: disruptors of C. elegans POS-1 RNA interaction – biochemical, fluorescence polarization, dose response (AID 1964);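 further: purified POS-1 fused to maltose binding protein made in E. coli; potency of compounds blocking POS-1 binding to fluorescent RNA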
T1 sequence (G5EF15 whole entry): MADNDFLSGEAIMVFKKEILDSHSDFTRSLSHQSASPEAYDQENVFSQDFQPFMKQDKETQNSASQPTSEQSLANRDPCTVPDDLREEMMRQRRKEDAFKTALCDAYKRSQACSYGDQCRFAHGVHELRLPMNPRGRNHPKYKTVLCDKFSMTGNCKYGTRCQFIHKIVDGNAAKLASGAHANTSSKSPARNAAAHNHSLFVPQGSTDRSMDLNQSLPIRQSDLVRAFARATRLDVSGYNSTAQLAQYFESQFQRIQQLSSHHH

[15] = target: T2, Zinc finger protein mex-5 (Caenorhabditis elegans, UniProt Q9XUB2); assay: potency of MEX-5 RNA-binding blockers – biochemical, C. elegans, fluorescence polarization, dose response (AID 1960)
T2 sequence (Q9XUB2 whole entry): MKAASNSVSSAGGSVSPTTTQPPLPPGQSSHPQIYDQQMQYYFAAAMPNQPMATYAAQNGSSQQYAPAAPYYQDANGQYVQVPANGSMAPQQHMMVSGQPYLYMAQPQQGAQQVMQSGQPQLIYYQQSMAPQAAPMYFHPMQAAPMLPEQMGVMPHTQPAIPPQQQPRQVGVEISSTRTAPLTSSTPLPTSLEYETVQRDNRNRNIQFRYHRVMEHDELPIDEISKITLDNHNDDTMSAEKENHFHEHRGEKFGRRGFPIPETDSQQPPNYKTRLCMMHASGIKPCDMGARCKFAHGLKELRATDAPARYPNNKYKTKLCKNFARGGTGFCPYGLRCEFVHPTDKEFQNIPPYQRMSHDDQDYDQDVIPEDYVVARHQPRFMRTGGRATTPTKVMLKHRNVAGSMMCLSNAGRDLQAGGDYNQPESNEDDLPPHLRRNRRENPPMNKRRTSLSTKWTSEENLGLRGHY

Coagulation factor XII = target: T3, Coagulation factor XII (Homo sapiens, UniProt P00748); format: functional;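 further: activated factor XIIa alpha cleaving a fluorogenic AMC peptide substrate; inhibitor potency from loss of enzyme activity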
T3 sequence (P00748 whole entry): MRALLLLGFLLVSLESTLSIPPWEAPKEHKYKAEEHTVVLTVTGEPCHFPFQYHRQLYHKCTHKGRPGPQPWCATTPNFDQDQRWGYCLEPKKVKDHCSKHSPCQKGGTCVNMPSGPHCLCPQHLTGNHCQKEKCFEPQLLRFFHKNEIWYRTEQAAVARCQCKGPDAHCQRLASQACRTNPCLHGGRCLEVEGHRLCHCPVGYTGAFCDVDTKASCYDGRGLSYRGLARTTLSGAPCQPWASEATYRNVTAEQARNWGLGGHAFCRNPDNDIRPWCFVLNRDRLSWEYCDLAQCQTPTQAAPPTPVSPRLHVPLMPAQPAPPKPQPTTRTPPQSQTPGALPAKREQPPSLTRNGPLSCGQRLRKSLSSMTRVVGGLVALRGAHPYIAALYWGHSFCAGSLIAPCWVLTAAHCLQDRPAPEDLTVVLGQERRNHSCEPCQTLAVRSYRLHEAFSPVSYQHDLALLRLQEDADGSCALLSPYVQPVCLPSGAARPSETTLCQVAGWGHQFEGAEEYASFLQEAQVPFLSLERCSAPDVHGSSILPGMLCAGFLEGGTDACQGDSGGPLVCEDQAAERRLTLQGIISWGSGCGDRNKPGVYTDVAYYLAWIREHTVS

H4 = assay: Luminescence Cell-Based Dose Response HTS to Identify Activators of 5'UTR Stem-Loop Driven Prion Protein mRNA Translation in H4 Neuroglioblastoma Cells. [Related pubchem assays: 1829 (Project Summary), 1814 (Primary HTS)]; format: functional; conditions: Homo sapiens
[16] = THP-1 cell cytotoxicity, dose response, cytotoxicity control for non-replicating M. tuberculosis project (AID 489025); format: functional
[17] = HepG2 cell cytotoxicity, dose response, cytotoxicity control for non-replicating M. tuberculosis project (AID 489018); format: functional; conditions: Mycobacterium tuberculosis
[18] = Vero E6 cell cytotoxicity, dose response, cytotoxicity control for non-replicating M. tuberculosis project, secondary assay (AID 492998); format: functional, VeroE6; conditions: Vero C1008
Leucine aminopeptidase = target: T4, Leucine aminopeptidase (Plasmodium falciparum 3D7, UniProt Q8IL11); assay: P. falciparum M17LAP inhibitors, primary screen, biochemical, fluorogenic H-Leu-NHMec substrate, 1536-well (AID 1619); format: functional
T4 sequence (Q8IL11 whole entry): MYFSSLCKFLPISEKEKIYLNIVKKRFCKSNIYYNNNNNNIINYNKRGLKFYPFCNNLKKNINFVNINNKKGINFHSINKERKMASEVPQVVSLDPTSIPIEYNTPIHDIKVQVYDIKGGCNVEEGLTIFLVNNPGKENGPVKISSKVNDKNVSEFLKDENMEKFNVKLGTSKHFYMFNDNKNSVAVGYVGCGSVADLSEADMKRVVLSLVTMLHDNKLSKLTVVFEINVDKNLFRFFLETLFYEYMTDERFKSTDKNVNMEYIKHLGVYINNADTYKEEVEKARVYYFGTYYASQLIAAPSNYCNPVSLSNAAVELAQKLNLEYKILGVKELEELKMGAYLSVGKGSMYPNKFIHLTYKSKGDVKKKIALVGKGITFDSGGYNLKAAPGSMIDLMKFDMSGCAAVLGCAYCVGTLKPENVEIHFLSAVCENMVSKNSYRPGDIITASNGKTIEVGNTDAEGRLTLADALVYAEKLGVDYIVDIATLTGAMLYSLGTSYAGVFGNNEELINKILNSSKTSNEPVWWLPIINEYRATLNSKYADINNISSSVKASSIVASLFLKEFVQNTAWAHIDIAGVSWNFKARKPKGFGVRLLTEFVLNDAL

[19] = Luminescence Cell-Based Dose Confirmation HTS to Identify Activators of 5'UTR Stem-Loop Driven Alpha-Synuclein mRNA Translation in H4 Neuroglioblastoma Cells. [Related pubchem assays: 1829 (Project Summary), 1814 (Primary HTS)]; format: functional
[20] = Luminescence Cell-Based Dose Response HTS to Identify Activators of Luciferase Translation or Activity in H4 […] Cells. [Related pubchem assays: 1829 (Project Summary), 1814 (Primary HTS)]; format: functional
[21] = target: Heat shock protein HSP 90-alpha (Homo sapiens, UniProt P07900); format: functional, organism-based
cells = format: functional
[22] = target: T5, DNA repair and recombination protein RAD54-like (Homo sapiens, UniProt Q92698); assay: RAD54 Holliday junction migration blockers – biochemical, fluorescence, cherry-picked samples, dose series, confirmation (AID 651657); format: functional
T5 sequence (Q92698 whole entry): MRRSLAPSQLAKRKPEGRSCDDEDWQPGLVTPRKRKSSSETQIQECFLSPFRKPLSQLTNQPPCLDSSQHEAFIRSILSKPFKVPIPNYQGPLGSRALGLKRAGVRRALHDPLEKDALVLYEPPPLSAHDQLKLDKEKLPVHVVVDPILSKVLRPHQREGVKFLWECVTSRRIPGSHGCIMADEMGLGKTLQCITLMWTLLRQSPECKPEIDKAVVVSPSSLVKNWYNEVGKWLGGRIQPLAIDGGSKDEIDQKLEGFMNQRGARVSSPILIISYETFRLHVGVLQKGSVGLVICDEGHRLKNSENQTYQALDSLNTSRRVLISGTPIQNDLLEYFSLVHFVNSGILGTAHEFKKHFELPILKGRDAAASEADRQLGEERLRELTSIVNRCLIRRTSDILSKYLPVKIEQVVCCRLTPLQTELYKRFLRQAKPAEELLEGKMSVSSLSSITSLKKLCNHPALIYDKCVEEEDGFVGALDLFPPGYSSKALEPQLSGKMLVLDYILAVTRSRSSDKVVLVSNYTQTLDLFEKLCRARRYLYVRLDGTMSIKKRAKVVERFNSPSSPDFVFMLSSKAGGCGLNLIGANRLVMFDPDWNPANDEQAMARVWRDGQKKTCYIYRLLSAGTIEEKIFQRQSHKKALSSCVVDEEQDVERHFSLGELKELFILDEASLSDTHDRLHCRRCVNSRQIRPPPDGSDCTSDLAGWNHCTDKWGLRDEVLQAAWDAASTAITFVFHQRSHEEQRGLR

[23] = reduction of Shn3 3'UTR-driven luciferase in osteoblasts – cell-based, Clone20 osteoblasts, firefly luciferase, cherry-picked, dose response (AID 624132); format: functional;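 further: firefly luciferase luminescence from reporter carrying the Shn3 3'UTR in osteoblasts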
[24] = non-specific 3'UTR reporter inhibition in Clone20-Shn3RL – cell-based, Renilla luciferase, cherry-picked, counter-screen for Shn3 inhibitor project, dose response (AID 624133); format: functional
[25] = HIV-1 AD8 envelope cell-cell fusion blockers – cherry-pick, dose response (AID 652062); format: functional, cell-based;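 further: luciferase signal from cell-cell fusion driven by HIV-1 clade B AD8 Env; potency is for inhibitors of fusion seen as a drop in luminescence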
[26] = loss of viability in HepG2 cells – cell-based, CellTiter-Glo, cherry-picked, cytotoxicity control for Shn3 inhibitor project, dose response (AID 624134); format: functional
[27] = blockers of HIV-1 ZM109 envelope-driven cell-cell fusion – HeLa effector, CEM target cells, luciferase, cherry-pick, dose response (AID 652058); format: functional, cell-based;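 further: luciferase signal from HIV-1 Env mediated cell-cell fusion of effector and target cells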
[28] = blockers of HIV-1 envelope-mediated cell-cell fusion – cherry-pick, dose response (AID 652057); format: functional, cell-based

COc1ccccc1C(=O)NCc1ccc(-c2nc3ccccc3s2)cc1
EC50 (HEK293 [1]): 6.77 µM (active)
IC50 (HEK293 [2]): 6.82 µM (inactive)
IC50 (HEK293 [3]): > 20 µM (inactive)
EC50 [4]: 15.2 µM (active)
EC50 [5]: 0.312 µM (active)
IC50 (HEK293 [6]): 1.93 µM (active)
EC50 [7]: 6.29 µM (active)
IC50 (HEK293 [8]): > 20 µM (inactive)
EC50 [9]: > 120 µM (not active)

O=C(NC1CCCCC1)C(c1ccccc1)N(Cc1ccc2c(c1)OCO2)C(=O)c1cnsn1 (stereo unspecified)
EC50 [10]: 4.5 µM (active)

O=C(c1ccccc1)c1cccc(NC(=O)c2ccc(Br)o2)c1
EC50 [10]: 7.3 µM (active)

N=c1n(Cc2ccccc2)c2ccccc2n1CC(O)c1ccco1 (stereo unspecified)
EC50 (Troponin, cardiac muscle): > 71.5 µM (inactive)

COc1ccc(NC(=O)c2cc3c(Cl)nc4ccccc4c3s2)cc1OC
IC50 [11]: > 80 µM (inactive)
EC50 [12]: 48.8 µM (active)
EC50 [13]: 58.6 µM (active)

Cc1ccccc1Nc1nc(Cl)c(C=O)s1
IC50 [11]: > 80 µM (inactive)
EC50 [14]: > 300 µM (not active)
EC50 [15]: > 300 µM (not active)

COc1ccc(-n2ncc3c(NCc4ccccn4)ncnc32)cc1
IC50 (Coagulation factor XII): > 50 µM (inactive)

Cc1cc(C(=O)COc2cccnc2[N+](=O)[O-])c(C)n1Cc1ccco1
EC50 (HEK293 [1]): > 20 µM (inactive)
IC50 (HEK293 [2]): > 20 µM (inactive)
IC50 (HEK293 [3]): > 20 µM (inactive)
IC50 (HEK293 [6]): 18.2 µM (active)
EC50 [7]: 13.1 µM (active)
IC50 (HEK293 [8]): > 20 µM (inactive)

CSC1=NSC2=NC(=O)/C(=C\c3cccs3)C(=N)N12
EC50 (H4): 75 µM (active)
CC50 [16]: > 40 µM (active)
CC50 [17]: > 20 µM (active)
CC50 [18]: > 20 µM (active)
IC50 (Leucine aminopeptidase): 32.2 µM (active)
EC50 [19]: 8.94 µM (active)
EC50 [20]: 0.418 µM (active)

Cc1ccc(CNC(=O)c2ccc(Cn3nc(C)c(Cl)c3C)o2)cc1
AC50 [21]: 8.04 µM (active)
EC50 [10]: 5.77 µM (active)

O=C(NCCCN1CCCC1)c1cc2c(Cl)nc3ccccc3c2s1
CC50 [16]: 38.7 µM (active)
CC50 [17]: > 20 µM (active)
CC50 [18]: > 20 µM (active)
IC50 (cells): 30.8 µM (active)
AC50 [22]: 7.11 µM (active)

Cc1cc(Cl)c(S(=O)(=O)N2CCSCC2)cc1OCC(=O)NC1CCCCC1
EC50 (HEK293 [1]): 2.58 µM (active)
IC50 (HEK293 [2]): 3.6 µM (active)
IC50 (HEK293 [3]): 9.2 µM (active)
IC50 (HEK293 [6]): 4.29 µM (active)
EC50 [7]: 7.37 µM (active)
AC50 [23]: 4.11 µM (active)
AC50 [24]: 5.08 µM (active)
IC50 (HEK293 [8]): > 20 µM (inactive)
AC50 [25]: 4.1 µM (active)
AC50 [26]: 4.04 µM (active)
AC50 [27]: 1.06 µM (active)
AC50 [28]: 31.6 µM (active)
